We go through 74 compounds from PubChem BioAssay AID179 (DTP/NCI, 2004).

Active and inactive are the calls of the source.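 The calls were made as follows: active = compounds giving half or more protection of infected cells from virus-caused growth loss, again on retest; inactive = the rest.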

The subject of this assay is CEM cells HIV-1 protection, formazan growth assay. As to the kind of experiment: NCI AIDS Antiviral Assay. Conditions: for IC50: measured here: growth of uninfected CEM cells. In short, it runs like this: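 Protection of CEM cells against HIV-1 was scored from cell growth (soluble formazan) across five concentrations, with parallel uninfected cells. Lack of protection may reflect toxicity.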

The EC50 is the concentration needed to bring the measured effect to its halfway point. Usually IC50 stands for the midpoint of a concentration-inhibition curve. Read a high IC50 as weaker potency in that assay. As to `CN1CCN(CCCCN2c3ccccc3Sc3ccc(N=[N+]=[N-])cc32)CC1`, the EC50 was greater than 200 µM and the concentration for half-maximal inhibition (IC50) stood at 5.25 µM.
Take `Cc1cn(C2CC(N=[N+]=[N-])C(COC(=O)CCCCCCCCCCCI)O2)c(=O)[nH]c1=O` (stereo unspecified): the EC50 was 0.049 µM and the IC50 stood at 102 µM.
Turning to `O=C(Cn1c2c(c3ccccc31)CCCC2)NC1CCCCC1`, the EC50 is greater than 200 µM and the IC50 is greater than 200 µM.
In the case of `COc1cc2c3c(c1)nnn3C(=O)C(c1ccccc1)S2` (stereo unspecified), the EC50 was greater than 200 µM and the IC50 is greater than 200 µM.
`O=C(Nn1c(-c2ccccc2)nc2ccccc2c1=O)c1ccc(O)cc1`: the EC50 was greater than 200 µM and the IC50 is greater than 200 µM.
For `CCOc1ccc(Nc2nc(C)c(C(=O)CC(=O)C(=O)Nc3ccc(C(C)C)cc3C(C)C)s2)cc1`, the EC50 is greater than 200 µM and the IC50 amounted to 105 µM.
Consider `CC/C(=N/OC(=O)N(C)C)c1ccccc1`, for which the EC50 is greater than 200 µM and the IC50 is greater than 200 µM.
`CCOc1cc(/C=C/c2c(C#N)c(=O)oc3ccc(C)cc23)ccc1O`: the EC50 is greater than 25.1 µM and the IC50 is 4.47 µM.
For `CCCCC(=O)Oc1c(Cl)cc(C(=CCC[C@H]2CC[C@@]3(C)[C@@H](CC[C@@H]4[C@@H]3CC[C@]3(C)[C@@H](C(C)CCCC(C)C)CC[C@@H]43)C2)c2cc(Cl)c(OC(=O)CCCC)c(C(=O)O)c2)cc1C(=O)O` (stereo partly specified) the same measures were 74.1 µM and greater than 100 µM.
Consider `COc1cccc2ccc(C(=O)c3ccccc3)nc12`, for which the EC50 is greater than 97.7 µM and the IC50 is greater than 97.7 µM.
On to `COc1cccc(CCNc2c(C#N)c3n(c4ccccc4[n+]3C)c3ncccc23)c1`, for which the EC50 was greater than 200 µM and the IC50 was determined as 1 µM.
For the compound `COC(=O)/C(=N/NC(C)(C)C)C(C(=O)C=C(C)C)C(=O)C(=O)Nc1ccc(Cl)cc1C` (stereo unspecified), the EC50 is greater than 398 µM and the 50% inhibitory concentration (IC50) was found to be 269 µM.
For `O=C(O)CCC(=O)c1ccc2oc3ccccc3c2c1` the same measures were greater than 200 µM and greater than 200 µM.
For `COCc1nc(C#N)c(N)o1` the same measures were greater than 200 µM and greater than 200 µM.
Consider `Cc1nc2sc3c(c2c(=O)o1)CCCC3`, for which the EC50 was greater than 200 µM and the IC50 came out at 33.1 µM.
In the case of `CSc1nnc2sc(=S)[nH]n12`, the EC50 was greater than 200 µM and the concentration for half-maximal inhibition (IC50) was greater than 200 µM.
With `COC=C(c1cc(Br)c(OC)c(C(=O)OC)c1)c1cc(Br)c(OC)c(C(=O)OC)c1`, the EC50 was greater than 200 µM and the IC50 amounted to 13.5 µM.
Taken in the same sequence, the figures for `O=C(O)C12C3CCC(O3)C1(C(=O)O)C1CCC2O1` (stereo unspecified) were greater than 200 µM and greater than 200 µM.
Taken in the same sequence, the figures for `COc1cc(C2c3cc4c(cc3OC(NNC(N)=O)C2C)OCO4)cc(OC)c1OC` (stereo unspecified) were greater than 200 µM and 0.331 µM.
As to `CN(C)c1ccc(C(C#N)NNC(=O)Cc2ccccc2)cc1` (stereo unspecified), the EC50 is greater than 85.1 µM and the IC50 is greater than 85.1 µM.
Regarding `Cc1oc2cc(O)ccc2c(=O)c1-c1ccccc1`, the EC50 was greater than 200 µM and the IC50 came out at 30.2 µM.
Consider `COc1cc2c3c(c1)/C(=N\N)CCN3CCC2`, for which the EC50 is greater than 200 µM and the IC50 turned out to be 115 µM.
Turning to `COc1ccc(-c2ccccc2)cc1S`, the EC50 is greater than 200 µM and the IC50 was greater than 200 µM.
Take `OCC(O)CC[CH2][Sn]([c]1ccccc1)([c]1ccccc1)[c]1ccccc1` (stereo unspecified): the outcome was inactive.
With `CCOC(=O)C1(C#N)C(C#N)(C#N)C1(CC)CC` (stereo unspecified), the EC50 was greater than 200 µM and the IC50 worked out at 66.1 µM.
Regarding `COCn1cc(C2=C(C)C(=O)C(C)=C(C)C2=O)cn1`, the EC50 is greater than 200 µM and the IC50 turned out to be 6.03 µM.
Turning to `CC(O)C1(CNc2cc(Cl)nc(N)n2)CCCC1` (stereo unspecified), the EC50 is greater than 200 µM and the IC50 stood at 74.1 µM.
For `C/C=C/C(CC(O)(C(F)(F)F)C(F)(F)F)=N/NC(N)=S` the same measures were greater than 200 µM and greater than 200 µM.
As for `CP1(=S)CCC2=C1c1ccc(O)cc1CC2` (stereo unspecified), the outcome was inactive.
`Cc1ccc(C)c2sc3cc(=O)ccc-3nc12`: the EC50 was greater than 107 µM and the IC50 is greater than 107 µM.
Take `CCCNC(=O)N(CC(C)(C)C)S(=O)(=O)c1ccc(Cl)cc1`: the result was inactive.
On the same count and under the same terms, to `CCN(CC)C(=O)c1cccc2cccc(OC)c12` belongs “inactive”.
As for `CS(=O)(=O)OCCCNCCCOS(C)(=O)=O`, the EC50 is greater than 759 µM and the IC50 came to 562 µM.
Taken in the same sequence, the figures for `Clc1ccc(CN2CCCN(Cc3ccc(Cl)c(Cl)c3)S2)cc1Cl` were greater than 61.7 µM and greater than 61.7 µM.
On to `CC1(C)OC2COC(=O)CC2O1` (stereo unspecified), for which the EC50 was greater than 200 µM and the IC50 was greater than 200 µM.
As for `O=c1[nH]nc(-c2ccccc2)n1/N=C/c1ccccc1Cl`, the EC50 was greater than 200 µM and the IC50 came to 74.1 µM.
Taken in the same sequence, the figures for `O=C1C=CC(=O)C2C3c4ccccc4C(c4ccccc43)C12` (stereo unspecified) were greater than 34.7 µM and greater than 34.7 µM.
As for `CN(CC(=O)O)S(=O)(=O)c1ccc(Cl)cc1`, the result was inactive.
Turning to `CC(C)(Br)C(=O)C(Br)Br`, the EC50 was greater than 200 µM and the IC50 is 5.25 µM.
For `CC(=O)OC1CC2C(C)(C)C(=O)C=C[C@]2(C)C2CCC3(C)C(c4ccoc4)C(=O)[C@H]4O[C@]43[C@]12C` (stereo partly specified) the same measures were greater than 15.5 µM and 12 µM.
Taken in the same sequence, the figures for `N#CCCC(C=O)(CCC#N)CCC#N` were greater than 200 µM and greater than 200 µM.
Turning to `Cc1cn(C2CC(/[N+]([O-])=N\Nc3ccc([N+](=O)[O-])cc3)C(CO)O2)c(=O)[nH]c1=O` (stereo unspecified), the EC50 is greater than 200 µM.
With `COC(=O)c1cc(C(=CC(=O)N[C@@H]2CC[C@@]3(C)[C@@H](CC[C@@H]4[C@@H]3CC[C@]3(C)[C@@H]([C@H](C)CCCC(C)C)CC[C@@H]43)C2)c2cc(Cl)c(OC)c(C(=O)OC)c2)cc(Cl)c1OC`, the EC50 is greater than 100 µM and the 50% inhibitory concentration (IC50) was greater than 100 µM.
As to `O=C(NCCCCCCNC(=O)c1ccccn1)c1ccccn1`, the EC50 is greater than 200 µM and the IC50 is 191 µM.
For `N#Cc1c(Cl)cc(C#N)n2c1nc1ccccc12` the same measures were greater than 20 µM and 0.363 µM.
For `O=C(O)CCCCCCC[n+]1ccccc1` the same measures were 126 µM and greater than 200 µM.
Taken in the same sequence, the figures for `CC(=O)OCC1OC(N2C(c3ccccc3)=CC(c3ccccc3)C(C#N)=C2S)C(OC(C)=O)C(OC(C)=O)C1OC(C)=O` (stereo unspecified) were greater than 200 µM and 77.6 µM.
Regarding `CN(C)c1ccc(C2N(C)CCN2C)cc1`, the EC50 was greater than 200 µM and the IC50 is greater than 200 µM.
Consider `O=C(c1ccncc1)n1nc(-c2ccccc2)c(N=Nc2ccccc2[N+](=O)[O-])c1-c1ccccc1`, for which the EC50 was greater than 39.8 µM and the IC50 is greater than 39.8 µM.
Consider `Cc1ccc(S(=O)(=O)n2oc(=O)c(-c3ccccc3)c2N)cc1`, for which the EC50 is greater than 200 µM and the IC50 came out at 55 µM.
Taken in the same sequence, the figures for `CC(C)COC(=O)c1ccc(N)cc1` were greater than 200 µM and greater than 200 µM.
Turning to `CS(=O)(=O)C(=Cc1ccccc1Cl)S(C)(=O)=O`, the outcome was inactive.
Regarding `C[N+]1(C)CCC(C#N)(c2ccccc2)CC1`, the EC50 is greater than 724 µM.
For `N#Cc1[nH]c(=O)n(-c2ccc(Cl)cc2)c1N`, the EC50 is greater than 200 µM and the IC50 is greater than 200 µM.
Turning to `CC[CH2][Sn]([CH2]CC)([O]C(=O)c1cccnc1SC)[O][Sn]([CH2]CC)([CH2]CC)[O]C(=O)c1cccnc1SC`, the EC50 is greater than 24.5 µM and the IC50 turned out to be 5.62 µM.
Regarding `COC(=O)N/N=C(/CCC(=O)Nc1ccc(C)c(C)c1)CC(=O)C(C)(C)C`, the EC50 was greater than 661 µM and the IC50 was greater than 661 µM.
Regarding `N#CC1(C#N)NC(c2cccs2)C(C#N)(C#N)NC1c1cccs1` (stereo unspecified), the EC50 is greater than 200 µM and the IC50 amounted to 26.9 µM.
As to `CC(C(=O)O)[S+]1CCOCC1` (stereo unspecified), the EC50 is 0.0631 µM and the IC50 was greater than 200 µM.
Taken in the same sequence, the figures for `CCOc1ccc(N=c2ssc(SC)c2-c2ccccc2)cc1` were greater than 200 µM and 61.7 µM.
Taken in the same sequence, the figures for `O=C(C=Nc1ccccc1C(=O)O)c1ccco1` were greater than 8.32 µM and greater than 8.32 µM.
Consider `Nc1cccc(N=Nc2c(S(=O)(=O)O)cc3cc(Nc4ccc5c(O)c(N=Nc6cccc(N)c6)c(S(=O)(=O)O)cc5c4)ccc3c2O)c1`, for which the result was inactive.
As for `COc1ccc(N2C(=O)[C@H]3[C@H]4CC(C(C)(C)C)CC[C@H]4c4c(n(C)c5ccccc45)[C@H]3C2=O)cc1` (stereo partly specified), the EC50 was greater than 15.1 µM and the IC50 is greater than 15.1 µM.
In the case of `C/C=C\C(=O)C#Cc1cnc(OC)nc1OC`, the EC50 was greater than 2 µM and the IC50 is 0.0912 µM.
For `O=C1OCc2cnccc21` the same measures were greater than 1860 µM and greater than 1860 µM.
On to `CC(=O)Nc1ccc(C2=N/C(=C\c3ccc(Cl)cc3)C(=O)O2)cc1`, for which the EC50 was greater than 11 µM and the IC50 is greater than 11 µM.
Turning to `COc1ccc2nc3cc(Cl)ccc3c(Sc3ccc(N)cc3)c2c1`, the EC50 is greater than 14.1 µM and the IC50 was determined as 3.31 µM.
For the compound `COC1[C@]2(O)C(=O)N3/C=C\C(C)(C)c4[nH]c5ccccc5c4/C=C\3C(=O)N2C23C(C)C(C)(C)N2c2ccccc2[C@]13O` (stereo partly specified), the result was inactive.
With `O=C1CCCNn2c(nc3ncccc3c2=O)N1`, the EC50 is greater than 200 µM and the IC50 is 158 µM.
As for `O=C1CC2C(=O)N(Cc3ccccc3)C1C(S(=O)(=O)c1ccccc1)C2S(=O)(=O)c1ccccc1` (stereo unspecified), the result was inactive.
Turning to `COc1ccc2nc3cc(Cl)ccc3c(NC(C)CCCN(C)C)c2n1` (stereo unspecified), the EC50 is greater than 2 µM and the IC50 was found to be 1.02 µM.
For `CCn1c(N)c(N=O)c(=O)[nH]c1=O` the same measures were greater than 200 µM and greater than 200 µM.
Taken in the same sequence, the figures for `COc1cc(Nc2ccc3c(c2)CCC3)nc(OC)n1` were greater than 200 µM and 31.6 µM.
Take `N#CNc1nc(N)c(-c2ccc(Cl)cc2)c(C(=O)Nc2ccc(Cl)c(Cl)c2)n1`: the outcome was inactive.
For `COc1cc(OS(=O)(=O)O)c2c(c1)cc(O)c1c(=O)cc(C)oc12`, the EC50 is greater than 151 µM and the IC50 was greater than 151 µM.
